These results are taken from patent US12350337B2, “Polymeric drug delivery conjugates and methods of making and using thereof” (UNIVERSITY OF UTAH RESEARCH FOUNDATION, priority 2019, dated 2025).

Where no end group is shown, it is not given here. [ ]: non-standard residue; d: D form.

The test system of data set [1] is 4T1 tumors. Kind of data set: 4T1 tumor therapy with PPA, MPPA and KT-1 combinations. It is filed as in vivo, BALB/c mice.
From the text: (B) Individual tumor volume, (C) body weight change, and (D) survival rate in 4T1-tumor bearing BALB/c mice over time after different treatments (n=5-10). (E) Individual tumor volume measurement after naive control mice or KT-1→MPPA treated CR mice in (D) were subcutaneously re-challenged with 4T1 or CT26 cells (n=5). (F) The representative scatter plots of the percentage of tumor cell-reactive T cells (IFN-γ+CD8+) among PBMCs from KT-1→MPPA treated CR mice in (D) against 4T1 cells or CT26 cells (n=5). (G) Mice survival curve after re-challenge by i.v. injection of 4T1 cells after initial KT-1→MPPA treatment (n=5). (H) CD44+CD62L-memory effector CD8+ T cells in spleen after 4T1 cell i.v. re-challenge (n=5).
For data set [2], the target named is T1, PD-L1 (Mus musculus, UniProt Q9EP73).
T1 construct: Specificity of PPA towards PD-L1 on 4T1 cells; endogenous in cells; host or cells: 4T1 cells
T1 sequence (Q9EP73 19-290): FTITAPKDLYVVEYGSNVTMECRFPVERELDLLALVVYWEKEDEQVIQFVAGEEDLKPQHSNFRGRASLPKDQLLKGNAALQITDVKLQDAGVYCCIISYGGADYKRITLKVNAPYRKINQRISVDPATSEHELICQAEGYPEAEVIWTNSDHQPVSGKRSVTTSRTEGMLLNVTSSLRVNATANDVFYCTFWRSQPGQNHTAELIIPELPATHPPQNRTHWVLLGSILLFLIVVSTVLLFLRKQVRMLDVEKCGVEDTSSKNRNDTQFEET
In words: Whole cell PD-L1 expression with or without E-64. The class given is cell-based, murine. As to the method:
(§1) (A) Schematic illustration of inhibiting PD-L1 recycling by MPPA crosslinking. (B) Lysosome colocalization with α-PD-L1-Cy5 or Cy3-labeled MPPA (P-(PPA)14-Cy3) after 3 h treatments at 37° C. Blue: nuclei; Red: Cy3/Cy5; Green: lysosome. (C) Whole cell PD-L1 expression with or without lysosome hydrolysis inhibition by E-64. 4T1 cells were treated with α-PD-L1, PPA, or MPPA for 3 h in the absence (−) or presence (+) of E-64 cysteine protease inhibitor. Afterward, cells were further incubated in cell culture medium for another 24 h, prior to PD-L1 quantification. (D) Time-dependent recovery of surface PD-L1. […] (E) In vivo tumoral PD-L1 expression, and (F) representative flow cytometry analysis plots of CD3+CD8+CTLs and CD4+ Foxp3+ Tregs after KT-1 and MPPA combination treatment as indicated by arrows in (E). n=3 in (C) and (D), and n=5 in (E) and (F), from a representative experiment from two independent experiments.
(§2) Together, these findings established the polymer-facilitated crosslinking of surface PD-L1 as a potential therapeutic strategy to produce prolonged elimination of PD-L1, rather than the transient blocking afforded by standard anti-PD-L1 antibodies.

Data set [3] has as its system LLC-1 Lewis lung carcinoma cells. Kind of data set: Metastatic LLC-1 Lewis lung carcinoma model.
Method: (I) Survival rate of mice after indicated treatments (n=5). C57BL/6 mice were intravenously inoculated with 2×10^5 LLC-1 Lewis lung carcinoma cells on day 0. Then mice were treated as described in (A). (J) The fold increases in the percentage tumor cell-reactive T cells (IFN-γ+CD8+) among PBMCs from mice in (I) on Day 25 against LLC-1 cells. (K) CD44+CD62L-memory effector CD8+ T cells in spleen from mice in (I) on Day 25. (L) Tumor burden in lungs from mice in (I) on Day 25, depicted as lung weight and hematoxylin-eosin histology analysis of lung lobe sections.* P<0.05, n.s, not significant, one-way ANOVA with Tukey's multiple comparison test.
For data set [4], the system named is 4T1 tumors. Kind of data set: In vivo tumoral PD-L1 expression and tumor-infiltrating lymphocytes after KT-1 followed by PD-L1 blockade. On the set-up: species or system BALB/c mice. Particulars: for tumoral PD-L1 expression: KT-1 Days 7 and 14, PD-L1 blockade Day 15, two days post blockade. The method, then:
as §1
To validate the PD-L1 depletion in vivo, mice bearing 4T1-tumor were treated with α-PD-L1, PPA, or MPPA on Day 15, following two doses of KT-1 treatment on Day 7 and 14 (FIG. 7E). Tumoral PD-L1 expression and tumor-infiltrating lymphocytes were studied two days post PD-L1 blockade.

The next data set concerns CT26 tumors. Kind of data set: Subcutaneous CT26 colon carcinoma model. It is filed as in vivo, BALB/c mice. An excerpt: Blue: cell nuclei; Green: EPI; Red: CRT.
Moreover, KT-1→MPPA further improved the anti-tumor efficacy, and outperformed KT-1→α-PD-L1 (20% complete tumor regression), leading to complete regression of established tumors in 60% of animals (FIG. 15A).

For data set [5], the system named is 4T1 cells. In words: Lysosome colocalization (confocal). Particulars: 3 h at 37° C. The class given is cell-based, murine. The method, then: as §1, §2
Data set [6] relates to 4T1 cells. In words: Internalization of surface bound P-(PPA)x-Cy3. Particulars: 37° C., compared with low-valence P-(PPA)1.3-Cy3 and P-Cy3. The class given is cell-based, murine. The method, then:
Then surface PD-L1 along with receptor-bound conjugates were removed by proteinase-K digestion (0.4 mg/mL, 20 min, 37° C.), and flow cytometry was used to measure the internalized conjugates. Experiments were conducted in triplicate.
as §2

For data set [7], the system named is 4T1 tumors. Kind of data set: 4T1 tumor growth, survival and endpoint tumor immune analysis (EPI, KT-1, α-CD8, α-PD-L1 combinations). It is filed as in vivo, BALB/c mice.
Data set [8] relates to 4T1 tumors. In words: In vivo ICD induction and immune cell analysis after two doses. Details: species or system BALB/c mice. Particulars: Day 15. As to the method:
(§3) Fluorescence intensities were normalized to the same scale. Black circles indicate the tumor. (B) In vivo tumor cell uptake of EPI after the mice were treated with either free EPI or KT-1 (10 mg/kg EPI equivalence) at 1, 4, 7 days post injection. Data represent n=5 independently analyzed mice/group. […] Blue: cell nuclei; Green: EPI; Red: CRT. […] Data are represented as box plots (whiskers, 5th to 95th percentile). n=4 for saline and EPI treatments, and n=6 for KT-1 treatment, from a representative experiment from two independent experiments. * P<0.05 by student's t-test.
Having shown tumor-targeted delivery of KT-1, KT-1's impact on inducing ICD that implicates calreticulin (CRT) expression and high-mobility group box 1 (HMGB1) release was examined. CRT exposed on the surfaces of immunogenically dying tumor cells sends dendritic cells (DCs) an “eat me” signal to facilitate phagocytosis by antigen-presenting cells (APCs), while released HMGB1 functions as the “danger” signal and stimulates optimal antigen presentation to T cells. […] In FIG. 3D-E, BALB/c mice bearing non-immunogenic 4T1 tumors, were given two intravenous doses (on Days 7 and 14 after tumor implantation) of treatments with saline, EPI or KT-1 (first EPI equivalence dose 10 mg/kg followed by second dose 5 mg/kg).
This could be the result of efficiently triggering ICD-associated signals in tumors. […]

Data set [9] concerns the target T1, PD-L1. In words: PPA specificity to PD-L1: inhibition of Cy5-labeled anti-PD-L1 antibody binding on 4T1 cells. On the set-up: species or system murine. Particulars: 0.2 mM, pretreatment 1 h, co-incubation 1 h, 4° C. The method, then: (A) The PD-1/PD-L1 interaction mediated by PPA from immune escape to cancer immunotherapy. (B) Specificity of PPA towards PD-L1 on 4T1 cells. Negative control: Cy5-labeled anti-CD20 mAb rituximab (RTX) incubation with 4T1 cells at 4° C. for 1 h; Positive control: Cy5-labeled anti-PD-L1 antibody incubation with 4T1 cells at 4° C. for 1 h; PPA: 0.2 mM PPA pretreatment for 1 h and co-incubation with Cy5-labeled anti-PD-L1 antibody for 1 h 4° C. […] (C) Synthesis scheme and characterization of Cy3-labeled HPMA copolymer-PPA conjugates with different PPA valences.
PD-L1 peptide antagonist (PPA), with the amino acid sequence shown in FIG. 8A, was reported to bind PD-L1 with high affinity, and further confirmed in FIG. 8B. To achieve multimeric PD-L1 crosslinking, PPA was grafted onto HPMA copolymer to generate the multivalent polymer-PPA conjugates. By varying the ratio of the reaction components, a panel of conjugates was prepared with different valences for subsequent evaluation. Three conjugates with Cy3 labeled backbone were prepared: P-(PPA)14-Cy3, P-(PPA)4.3-Cy3, P-(PPA)1.3-Cy3, with the subscript denotes the valence. Additionally, unlabeled MPPA for receptor depletion studies was prepared with degradable backbone.

The target of data set [10] is T1, PD-L1. Particulars: cited from earlier work.
The subject of a further data set is 4T1 tumor. On the set-up: species or system BALB/c mice. Particulars: mouse, in vivo, iv. As to the method: as §3
KT-1, a degradable diblock HPMA copolymer-EPI conjugate with narrow polydispersity, was synthesized via one step reversible addition-fragmentation chain transfer (RAFT) polymerization and characterized in FIG. 2B and the techniques provided in Yang et al., J. Controlled Release, 218 (2015) 36-44. KT-1 has long-lasting retention in tumors. […] In contrast, KT-1-Cy5 profoundly accumulated at tumor site, which peaked at 24 h and lasted for at least 196 h.

The mark [11] stands for this setting: KT-1 Days 7 and 14, PD-L1 blockade Day 15.
Where [12] appears, read: 3 weekly treatments, EPI equivalence 10 mg/kg then two doses 5 mg/kg.

Regarding “MPPA: backbone-degradable HPMA copolymer grafted with multiple copies of PD-L1 peptide antagonist PPA, valence 12.6 (CNYSKPTDRQYHF)”, in the data set with 4T1 tumors [1], the “tumor growth / therapeutic efficacy” value was “slightly better therapeutic efficacy than PPA”. The PD-L1 depletion entry with PD-L1 [2] (24 h post cell binding, without E-64) is given as “depleted PD-L1 to a higher degree than α-PD-L1”. Further, the “PD-L1 depletion in the presence of E-64” value in the data set with PD-L1 [2] (E-64 cysteine protease inhibitor present) is “alleviated MPPA-triggered PD-L1 depletion”. In [3] (C57BL/6 mice, i.v. LLC-1 cells), this molecule gave a median survival of 28 days. In data set [3] (Day 25), the “reactive IFN-γ+CD8+ T cells in PBMCs and CD8+CD62L-CD44+ effector memory T cells in spleen” value was “none of the treatments with saline, α-PD-L1, or MPPA increased the number”. Further, in the data set with 4T1 tumors [4] (setting [11]), the “tumor infiltration of CTLs” value is listed as “did not further enhance tumor infiltration of CTLs”. Further, the “tumoral PD-L1 expression” value with 4T1 tumors [4] is “further reduction in PD-L1 expression”. In the data set on CT26 tumors (CT26, KT-1 days 7, 14, 21, anti-PD-L1 therapy days 15, 22), the tumor growth entry is on record as “marginal effect in inhibiting tumor growth”. Besides, in the data set on CT26 tumors (Day 17, after KT-1 Days 7 and 14, one dose Day 15), the “PD-L1 expression in CT26 tumors” value is on record as “more profound decrease in PD-L1 expression than α-PD-L1”. Moreover, in the data set with 4T1 cells [5], the lysosome colocalization result is on record as “substantial MPPA internalized into lysosome”.

“P-(PPA)14-Cy3 ([dN][dY][dS][dK][dP][dT][dD][dR][dQ][dY][dH][dF]; also: conjugated to (PPA)14 and Cy3, places not given here)”: the internalization rate entry with 4T1 cells [6] is reported as “accelerated internalization rates”.

On to `COc1cccc2c1C(=O)c1c(O)c3c(c(O)c1C2=O)C[C@@](O)(C(=O)CO)C[C@@H]3O[C@H]1C[C@H](N)[C@@H](O)[C@H](C)O1` [EPI, Epirubicin], for which, in the data set on 4T1 tumors [7] (setting [12]), the animal survival result is on record as “limited effect” and the tumor growth entry is “limited effect on controlling tumor”. Further, the “tumor PD-L1 expression after chemotherapy” value with 4T1 tumors [7] (endpoint of 3 weekly treatments) is reported as “adaptively enriched”. Moreover, the “frequency of CD11c+CD11b+Ly6c+CD86+ cells in tumor-draining lymph nodes” value with 4T1 tumors [8] is listed as “failed to generate the subset of CD11c+CD11b+Ly6c+ DCs”.

“P-(PPA)4.3-Cy3 ([dN][dY][dS][dK][dP][dT][dD][dR][dQ][dY][dH][dF]; also: conjugated to (PPA)4.3 and Cy3, places not given here)”: the internalization rate entry with 4T1 cells [6] was “accelerated internalization rates”.

For NYSKPTDRQYHF [PPA], the “tumor growth / therapeutic efficacy” value with 4T1 tumors [1] was “barely delayed tumor growth”. In the data set with PD-L1 [9], the “cell surface binding of anti-PD-L1 antibody after pretreatment” value is reported as “significantly inhibited”. In the data set on 4T1 tumors [4] (setting [11]), the Tregs in tumors entry is “depleted Tregs” and the “tumor infiltration of CTLs” value is “did not further enhance tumor infiltration of CTLs”. In addition, the “tumoral PD-L1 expression” value with 4T1 tumors [4] is given as “downregulated PD-L1 expression”. Besides, the “binding to PD-L1 (reported)” value with PD-L1 [10] is listed as “high affinity”.

For the molecule cyanine 5 [Cy5], in the data set with 4T1 tumor, the “tumor retention (in words)” value was “rapidly eliminated from the tumor and barely detectable after 2 h post-injection”.
